According to ChEMBL document CHEMBL5223073, “Andrographolide suppresses cisplatin-induced endothelial hyperpermeability through activation of PI3K/Akt and eNOS -derived nitric oxide” (Bioorg Med Chem, 2020):
Activity calls are given as the source filed them.

Legend:
[1] = system: HUVEC; test: Inhibition of cisplatin-induced store operated Ca2+ release in HUVEC cells at 100 uM preincubated with compound followed by cisplatin stimulation by Fura-2 AM staining based calcium influx assay; format: functional, cell-based; conditions: Homo sapiens
[2] = molecular target: Nuclear factor NF-kappa-B complex (Homo sapiens) (UniProt Q00653+P19838+Q04206); test: Inhibition of cisplatin-induced NF-kappaB activation in HUVEC cell nuclear extract assessed as reduction in NF-kappaB-DNA binding activity at 100 uM incubated for 1 hr by electrophoretic mobility shift assay; format: subcellular; conditions: Nucleus
[3] = molecular target: T1, NF-kappa-B inhibitor alpha (Homo sapiens) (UniProt P25963); test: Inhibition of cisplatin-induced phosphorylation of IkappaBalpha at Ser32/36 residue in HUVEC cells at 100 uM incubated for 1 hr by Western blot analysis; format: cell-based
T1 sequence (whole entry): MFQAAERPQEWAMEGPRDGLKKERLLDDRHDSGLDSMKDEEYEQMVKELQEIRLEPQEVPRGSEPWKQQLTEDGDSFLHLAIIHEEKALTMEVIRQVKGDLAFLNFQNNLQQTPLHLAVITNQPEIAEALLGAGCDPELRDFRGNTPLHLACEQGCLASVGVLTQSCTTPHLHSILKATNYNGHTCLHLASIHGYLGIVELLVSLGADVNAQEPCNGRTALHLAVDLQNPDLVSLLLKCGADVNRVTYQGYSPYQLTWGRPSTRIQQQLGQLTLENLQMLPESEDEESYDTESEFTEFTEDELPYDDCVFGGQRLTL

[4] = system: HUVEC; test: Inhibition of cisplatin-induced TRPC1 phosphorylation in [32P] orthophosphate labeled HUVEC cells at 100 uM incubated for 15 mins in presence of cisplatin by Western blot analysis; format: cell-based; conditions: Homo sapiens
[5] = system: HUVEC; test: Improvement in cisplatin-induced endothelial monolayer integrity in HUVEC cells assessed as increase in transendothelial electric resistance at 100 uM preincubated with compound followed by cisplatin stimulation and measured after 45 mins; format: functional, cell-based; conditions: Homo sapiens
[6] = system: HUVEC; test: Inhibition of cisplatin-induced PKCalpha translocation in HUVEC cells at 100 uM incubated for 15 mins in presence of cisplatin by Western blot analysis; format: functional, cell-based; conditions: Homo sapiens
[7] = molecular target: Transcription factor p65 (Homo sapiens) (UniProt Q04206); test: Inhibition of cisplatin-induced phosphorylation of p65 subunit at Ser536 residue in HUVEC cells at 100 uM incubated for 1 hr by Western blot analysis; format: cell-based
[8] = system: HUVEC; test: Inhibition of cisplatin-induced TRPC1 phosphorylation in [32P] orthophosphate labeled HUVEC cells at […] incubated for 15 mins in presence of cisplatin by Western blot analysis; format: cell-based; conditions: Homo sapiens

Sequence of Nuclear factor NF-kappa-B complex (Homo sapiens) (P19838 whole entry, looked up): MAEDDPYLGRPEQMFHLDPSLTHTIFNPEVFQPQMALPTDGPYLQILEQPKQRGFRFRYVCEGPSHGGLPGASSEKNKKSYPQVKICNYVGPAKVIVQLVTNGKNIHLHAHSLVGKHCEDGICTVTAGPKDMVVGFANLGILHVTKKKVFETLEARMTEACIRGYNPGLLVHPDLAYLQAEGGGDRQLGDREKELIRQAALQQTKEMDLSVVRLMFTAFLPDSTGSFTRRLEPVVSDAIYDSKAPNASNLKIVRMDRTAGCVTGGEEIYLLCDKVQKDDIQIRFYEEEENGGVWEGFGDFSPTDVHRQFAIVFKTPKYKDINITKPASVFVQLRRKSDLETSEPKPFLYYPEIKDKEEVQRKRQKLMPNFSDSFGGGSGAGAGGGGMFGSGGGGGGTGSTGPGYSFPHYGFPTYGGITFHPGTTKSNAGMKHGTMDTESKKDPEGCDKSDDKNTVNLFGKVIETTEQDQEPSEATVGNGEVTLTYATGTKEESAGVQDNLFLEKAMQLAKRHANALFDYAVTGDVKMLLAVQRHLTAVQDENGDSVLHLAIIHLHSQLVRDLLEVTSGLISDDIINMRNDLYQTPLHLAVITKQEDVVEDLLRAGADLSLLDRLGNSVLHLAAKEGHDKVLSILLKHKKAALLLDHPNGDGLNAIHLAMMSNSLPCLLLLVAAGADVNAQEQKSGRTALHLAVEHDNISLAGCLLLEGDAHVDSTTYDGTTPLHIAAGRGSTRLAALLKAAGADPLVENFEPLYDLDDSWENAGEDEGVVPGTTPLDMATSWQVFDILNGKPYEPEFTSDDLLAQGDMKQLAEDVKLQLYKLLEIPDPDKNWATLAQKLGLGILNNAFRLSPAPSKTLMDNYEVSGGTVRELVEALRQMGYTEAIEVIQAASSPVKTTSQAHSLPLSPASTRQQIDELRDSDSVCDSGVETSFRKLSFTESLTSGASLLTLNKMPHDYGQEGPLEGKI
Sequence of Nuclear factor NF-kappa-B complex (Homo sapiens) (Q00653 whole entry, looked up): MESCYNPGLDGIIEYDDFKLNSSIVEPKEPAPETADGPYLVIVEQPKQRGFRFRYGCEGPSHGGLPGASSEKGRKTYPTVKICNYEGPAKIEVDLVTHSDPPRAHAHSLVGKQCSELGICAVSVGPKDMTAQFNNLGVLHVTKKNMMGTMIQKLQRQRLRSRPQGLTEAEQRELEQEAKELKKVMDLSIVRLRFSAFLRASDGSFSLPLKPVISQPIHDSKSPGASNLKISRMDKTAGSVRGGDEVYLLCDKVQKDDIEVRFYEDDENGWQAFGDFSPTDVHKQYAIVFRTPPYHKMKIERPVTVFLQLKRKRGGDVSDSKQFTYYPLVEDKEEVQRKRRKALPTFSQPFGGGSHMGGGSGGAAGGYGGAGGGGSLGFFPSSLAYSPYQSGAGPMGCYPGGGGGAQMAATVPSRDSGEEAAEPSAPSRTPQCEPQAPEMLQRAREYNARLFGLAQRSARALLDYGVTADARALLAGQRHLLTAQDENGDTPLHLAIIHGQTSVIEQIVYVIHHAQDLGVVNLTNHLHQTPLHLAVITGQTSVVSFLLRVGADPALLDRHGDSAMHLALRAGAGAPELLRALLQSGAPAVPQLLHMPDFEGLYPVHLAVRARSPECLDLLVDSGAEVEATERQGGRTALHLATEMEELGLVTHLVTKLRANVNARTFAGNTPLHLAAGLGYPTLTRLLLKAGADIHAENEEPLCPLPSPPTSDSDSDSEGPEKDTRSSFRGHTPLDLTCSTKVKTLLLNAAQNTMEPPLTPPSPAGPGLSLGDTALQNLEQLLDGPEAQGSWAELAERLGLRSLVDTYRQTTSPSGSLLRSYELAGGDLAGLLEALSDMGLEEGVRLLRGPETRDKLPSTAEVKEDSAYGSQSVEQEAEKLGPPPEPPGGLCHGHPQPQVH
Sequence of Nuclear factor NF-kappa-B complex (Homo sapiens) (Q04206 whole entry, looked up): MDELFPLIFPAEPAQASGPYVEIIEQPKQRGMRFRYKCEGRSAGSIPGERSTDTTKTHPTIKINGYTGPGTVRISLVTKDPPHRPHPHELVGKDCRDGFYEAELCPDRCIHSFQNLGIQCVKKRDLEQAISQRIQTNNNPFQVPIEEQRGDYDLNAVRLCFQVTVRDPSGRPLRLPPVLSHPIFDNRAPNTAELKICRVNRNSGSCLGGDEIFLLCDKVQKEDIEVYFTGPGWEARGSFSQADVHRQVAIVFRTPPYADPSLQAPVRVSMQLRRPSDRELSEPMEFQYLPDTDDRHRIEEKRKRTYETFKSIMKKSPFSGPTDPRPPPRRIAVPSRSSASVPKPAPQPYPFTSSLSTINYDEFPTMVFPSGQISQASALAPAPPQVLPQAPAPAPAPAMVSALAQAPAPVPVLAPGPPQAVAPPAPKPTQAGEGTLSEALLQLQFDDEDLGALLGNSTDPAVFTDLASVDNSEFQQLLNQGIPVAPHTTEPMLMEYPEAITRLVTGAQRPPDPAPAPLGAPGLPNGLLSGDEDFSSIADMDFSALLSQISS
Sequence of Transcription factor p65 (Homo sapiens) (Q04206 whole entry): as the sequence (Q04206 whole entry, looked up) above

CC(=O)N[C@@H](C(=O)O)C(C)(C)SN=O
active: inhibition [1] | inhibition [2] | inhibition [3] | inhibition [4] | Activity [5] | inhibition [6] | inhibition [7]

Cn1c2ccccc2c2c3c(c4c5ccccc5n(CCC#N)c4c21)CNC3=O
active: inhibition [8]
